According to a melting point compilation (Tetko et al.; mined from patent text by program, amines drawn as free bases though some values may be those of a salt):

SMILES	melting point [°C]
O=C(CCCN1CCC2(CC(O)c3cc(Cl)cc(Cl)c32)C1)c1ccc(F)cc1 (stereo not given)	149 to 152
CCOC(=O)C1=C(C)NC(C=O)=C(C(=O)OCC)C1c1ccccc1[N+](=O)[O-] (stereo not given)	101 to 103
CC(C)CCN1C(=O)C2(COc3cc4c(cc32)OCCO4)c2ccccc21 (stereo not given)	134 to 137
O=C(O)c1ccccc1CCCCc1ccccc1	82 to 84
COc1ccc2c3c1CCCC3C(CN1CCN(C)CC1)CC2 (stereo not given)	115 to 116
Clc1ccc2oc(SCCN3CCC(OC(c4ccccc4)c4ccccc4)CC3)nc2c1	98 to 101
Nc1nc(Cl)nc2c1ncn2C1C=CCCC1 (stereo not given)	195 to 197
C=C1c2c(C)c(OCc3ccccc3)c(C)c(C)c2OC1(C)C	55 to 57
CSC[C@H]1C[C@H](C(=O)O)CS1 (relative stereo)	74.8 to 76
NC(=O)CN(CCCc1ccc(F)cc1)C1CCC(c2ccc3[nH]c(=O)oc3c2)CC1 (stereo not given)	266 to 270
Cc1c(N2CCC(N)C(C)(C)C2)c(F)cc2c(=O)c(C(=O)O)cn(C3CC3)c12 (stereo not given)	195 to 198
CN(C)S(=O)(=O)NC1CCC(CCN2CCC(c3cccc4c3CCO4)CC2)CC1 (stereo not given)	122
O=[N+]([O-])c1ccc(Cl)cc1NC1CCCC1	75
O=C(CCCl)c1cc2[nH]c(=O)[nH]c2cc1Cl	201 to 204
COC(=O)C1=C(C)NC(C)=C(C(=O)OC)C1C1CCC(C(=O)OC)C1 (stereo not given)	144 to 145
O=C(O)CCCCCNC(=O)CCC(=O)Nc1cccc2ccccc12	229 to 231
CC(=O)c1ccc(Cl)nc1	101 to 102
CC(=NN(c1ccccc1)c1ccccc1)c1ccccn1	84
N/C(=C1/Sc2ccccc2C1=O)c1ccccc1C(F)(F)F	148 to 149
CC(C)(C)OC(=O)N1CCN(C(=O)c2nc3c(N)nc(N)nc3nc2N)CC1	245 to 250
NS(=O)(=O)Oc1cccc(Br)c1	90 to 91.5
COc1cccc2c1nc(C(F)F)n2-c1nc(Nc2ccc(NS(C)(=O)=O)nc2)nc(N2CCOCC2)n1	302 to 306
C=CCNC(=S)Nc1cc(=N)n2c(n1)SCC2	225 to 226
O=C(Cc1ccccc1)N1CC2CCC(C1)O2	106

SMILES	melting point [°C]
C#CC1(O)CCN(C(C)=O)CC1	132 to 134
OCc1cc(Cl)ccc1I	115 to 117
CCOC(=O)C1(F)C(=O)NC(=O)NC1N1CCCCC1 (stereo not given)	149 to 150
O=C(O)CCc1nnc2c(=O)[nH]c3cc(C(F)(F)F)ccc3n12	333
NC(=O)c1nnn(Cc2ccccc2F)c1N	189 to 190
COc1cc2c(cc1C(=O)Cl)nnn2C(C)=O	170
OCCc1ccc(CCO)cc1	83 to 84
CCCCCCN(CCCCCC)c1c(N[C@@H](Cc2cn(Cc3ccccc3)cn2)C(=O)O)c(=O)c1=O	75 to 80
O=C(C=Cc1cccc(F)c1F)c1cnc2sc3c(n12)CCCCC3	193 to 195
CCCCc1nc2cccc(C(=O)OC)c2[nH]1	85
COC(=O)NNC(=O)c1ccc(Cl)cc1	160
CNC(=O)c1ccc(N2CCN(Cc3cc4c(c(OC)c3)OCC(=O)N4)CC2)c(C)c1	234 to 235
Cc1nc(-c2cc(C)c(OCCCc3cc(C(F)(F)F)no3)c(C)c2)no1	62 to 64.5
CCCCCCCCCCCCCCCCCCOc1cc2ccccc2c(N)c1O	97 to 99
N#CC(N)=C(C#N)N=C1c2ccccc2-c2ccccc21	156 to 157
CCN1C2=C(CSC2)C(=O)Nc2ccccc21	195 to 197
O=C(NCc1ccccc1)c1ccnc(NC(=O)C2CCCC2)c1	55 to 57
CCC1(CCCCCl)C(=O)Nc2c(C)cccc21 (stereo not given)	112 to 113
CC(=O)N1CCCC(=O)c2ccc(Cl)cc2CCC1=O	154 to 156
C[C@H]1CC[C@H](Nc2nccc(-n3ncc4c([N+](=O)[O-])cccc43)n2)CC1	254 to 255
Cc1nc(Cn2c(=O)sc3cc(F)c([N+](=O)[O-])cc32)no1	192 to 193
CCS(=O)(=O)c1cc(OC)c(OC)c(C(=O)O)c1	138 to 139
Cc1ccc2c(c1)c(=O)c(-c1nnnn1C)cn2C	281 to 282
CC1CCC(C2=C(O)C(=O)c3ccccc3C2=O)CC1 (stereo not given)	101

Now from value to compound:

melting point [°C]	SMILES
92 to 93	CCCCc1nnc(SCc2ccc(Cl)cc2)n1Cc1ccc(-c2ccccc2-c2nnn[nH]2)cc1
211 to 213	COc1cc2cc(C(N)=O)sc2cc1OC
86 to 88	O=C(NCCCCn1ccnc1)c1ccc(Cl)c(Cl)c1
98 to 101	COC(=O)c1ccccc1CS(=O)(=O)NC(=O)Cc1nc(OC)cc(OC)n1
268 to 270	COc1ccc(NC(=O)N2CCc3cc(S(=O)(=O)N4CC(c5ccccc5)NC4=O)ccc32)cc1 (stereo not given)
139 to 140	COc1ccc(-n2nc(OC(C)C)cc2-c2ccc(OCCNC(N)=O)cc2)cc1
103 to 108	CC(=O)Nc1ccc(/C=C\COCCCCCCNCC(O)c2ccc(O)c(CO)c2)cc1 (stereo not given)
160 to 162	Cc1nc2c(N)nc3ccccc3c2n1CCCOCC#Cc1ccccc1
88 to 90	O=C(NCC1Cc2ccc3c(c2O1)CCCC3)OCc1ccccc1 (stereo not given)
218	CC(C)CNC(=O)[C@H]1C[C@@H](S(=O)(=O)c2ccc([N+](=O)[O-])cc2)[C@@H](c2ccccc2F)N1 (racemic)
166 to 167	Cc1nnc(-c2ccc3occ(-c4ccncc4)c3c2)o1
218	COc1cc2c(-c3cc4cccnc4[nH]3)cn(CCN3CCOCC3)c2cc1OC
> 260	CNS(=O)(=O)c1ccc(NN=C2C(=O)Nc3ccc4ncsc4c32)cc1
> 300	O=C(Nc1ccccc1)c1ccccc1Nc1ncnc2[nH]cc(C(=O)c3ccccc3)c12
266 to 267	COc1cc(OC)c2c(=O)[nH]c(-c3ccc(OC)c(-c4ccc(S(C)=O)cc4)n3)nc2c1 (stereo not given)
> 250	COc1ccc(S(=O)(=O)N2CCc3[nH]c4c(cnc5cc(Cl)ccc54)c3C2)cc1
58 to 71	CCCCCCCCNC(=O)N1CCC(S(=O)(=O)c2ccc(CCNC[C@H](O)COc3ccc(O)c(C)c3)cc2)CC1
139 to 144	COC(=O)c1nc(-c2ccc(Cl)cc2F)cc(N)c1OC
252 to 254	CNC(=O)c1cccc(CNc2n[nH]c3ncnc(Nc4cccc(Cl)c4)c23)c1
150 to 155	c1ccc(-c2nnn[nH]2)c(-c2ccc(CNc3ccnc4ccnn34)cc2)c1
279 to 281	CC(C)n1c(=O)nc(-c2cnc3ccccc3c2)c2cc3c(cc21)OCO3
225 to 229	Cc1cc(C)c(-c2nc3ccc(C(=O)c4ccccc4)cc3[nH]2)[nH]1
174 to 175	CC(C)(C)c1ccc(C(=O)n2c3c(c4ccccc42)CC(C(=O)O)CC3)cc1 (stereo not given)
87 to 88	C=CCc1cc(C(=O)OC)ccc1OCCCCCOc1ccc2c(=O)cc(C(=O)OC)oc2c1CCC
100 to 102	CN(C)CCNC(=O)c1cccc2cc[nH]c12
203 to 205	O=C(NCCO)/C(=C/c1ccc(C(F)(F)F)cc1F)NC(=O)c1ccc(OCCC(F)(F)F)cc1

melting point [°C]	SMILES
236 to 237	Cn1nc(-c2cccc(N3Cc4cc(C(C)(C)C)ccc4C3=O)c2CO)cc(Nc2ccccn2)c1=O
117 to 118	Cc1cc(-n2cncn2)c2c(Cl)ccc(C)c2n1
184	O=C(NC(=O)N1C(=O)Cc2ccccc21)c1ccccc1
108 to 109	CCOC(=O)C1=C(C=O)Nc2ccnc(OC(C)C)c2C1c1ccccc1C(F)(F)F (stereo not given)
149 to 163	COc1ccc(C(=CC(=O)N2CCOCC2)c2ccc([N+](=O)[O-])cc2)cc1OC
158 to 160	Cc1cc(F)ccc1C1(c2ccc(S(C)(=O)=O)cc2C)CSC=C1c1ccc(S(C)(=O)=O)cc1 (stereo not given)
73 to 75	CCS(=O)(=O)N(Cc1ccccc1)Cc1ccc2[nH]cc(CCCN3CCN(c4ncncc4OC)CC3)c2c1
188 to 190	Cc1cc(-c2cn(-c3cccc(OCCCl)c3)c3ncnc(N)c23)cc(C)c1OCc1ccccc1
228	Cc1cc(-c2ccc(Cl)cc2)cn2c(C(=O)O)cnc12
182 to 184	CN1CCC(c2c[nH]c3ccc(OS(=O)(=O)c4ccc(Cl)cc4)cc23)CC1
130 to 132	O=c1oc(-c2ccc(OCC3CCCCC3)cc2)cc(O)c1SCCc1ccccc1
221 to 222	Cc1ccc(S(=O)(=O)N(C)c2ccccc(N)c2=O)cc1
195 to 197	N#Cc1cc(Cn2cncn2)ccc1-c1ccc(O)c(Cl)c1
94 to 96	Cc1ccccc1CC(Cc1ccccc1C)C(=O)O
234 to 236	CCNC(=S)Nc1ccc2[nH]c3cnc(C(=O)OC(C)C)c(CC)c3c2c1
155 to 158	COCO[C@@H](C(=O)OC)[C@@H](Sc1ccccc1[N+](=O)[O-])c1ccc(OC)cc1
40 to 42	C[C@H](Nc1c(-c2c(F)cc(OCCCN(C)C)cc2F)c(Br)nc2ncnn12)C(F)(F)F
133 to 135	CC(=O)OCc1nc(C(C)C)c(Sc2cc(Cl)cc(Cl)c2)n1Cc1ccncc1
183 to 187	CCc1c(-c2ccc(O)cc2)c2ccc3ccc(COCCN4CCCC4)c1n32
277 to 279	CC(C)Oc1cccc(C=C2Oc3ccc(C(=O)O)cc3C2=O)c1
194 to 195	CC(C)(C)C(NC(=O)c1ccc(Cl)cc1)NC(=NC#N)Nc1cccnc1 (stereo not given)
99.5 to 102	CN(C)c1ccc(CNC(=O)c2cccnc2Oc2ccc(F)cc2)cc1
232	COC(=O)c1cccc(-c2c(C)c(C(=O)c3ccc4nc(C)[nH]c(=O)c4c3)n3ccccc23)c1
181 to 182	Cn1nc(-c2ccc(F)cc2)c(-c2ccc(S(C)(=O)=O)cc2)cc1=O
151 to 154	CC12CCC3c4ccc(OC(=O)c5ccccc5)cc4CCC3C1CCC2OC(=O)c1cccnc1 (stereo not given)
186 to 187	CC(C(=O)O)c1ccc2cc(OCc3ccc4ccccc4n3)ccc2c1 (stereo not given)
